From PubChem BioAssay (NCI)
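Dose response: 5 concentrations. Exposure: 48 h. Format: 96-well plates. Endpoint: linear interpolation; highest concentration if not reached. Abbreviation: GI50, concentration required for 50% inhibition of growth. TGI: concentration producing complete growth inhibition.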

Columns and labels:
Experiment in all cases: growth of human tumour cells (NCI), 48 h
SF-268 CNS = test system: SF-268 CNS
OVCAR-4 ovarian = test system: OVCAR-4 ovarian
SW-620 colon = test system: SW-620 colon
M14 melanoma = test system: M14 melanoma
HOP-92 NSCLC = test system: HOP-92 NSCLC
HL-60(TB) leukemia = test system: HL-60(TB) leukemia
SF-295 CNS = test system: SF-295 CNS
TK-10 renal = test system: TK-10 renal
SN12C renal = test system: SN12C renal
SK-MEL-5 melanoma = test system: SK-MEL-5 melanoma
CAKI-1 renal = test system: CAKI-1 renal
SK-OV-3 ovarian = test system: SK-OV-3 ovarian
SK-MEL-28 melanoma = test system: SK-MEL-28 melanoma
NCI-H460 lung = test system: NCI-H460 lung
SNB-19 CNS = test system: SNB-19 CNS
MOLT-4 leukemia = test system: MOLT-4 leukemia
PC-3 prostate = test system: PC-3 prostate
HT29 colon = test system: HT29 colon
COLO 205 colon = test system: COLO 205 colon
KM12 colon = test system: KM12 colon
U251 CNS = test system: U251 CNS
NCI/ADR-RES ovarian = test system: NCI/ADR-RES ovarian
NCI-H522 lung = test system: NCI-H522 lung
DU-145 prostate = test system: DU-145 prostate
OVCAR-3 ovarian = test system: OVCAR-3 ovarian
HS 578T breast = test system: HS 578T breast
A549 NSCLC = test system: A549 NSCLC
HCT-15 colon = test system: HCT-15 colon
MDA-MB-435 = test system: MDA-MB-435
BT-549 breast = test system: BT-549 breast
HCT-116 colon = test system: HCT-116 colon
A498 renal = test system: A498 renal
HCC-2998 colon = test system: HCC-2998 colon
UO-31 renal = test system: UO-31 renal
SR leukemia = test system: SR leukemia
T-47D breast = test system: T-47D breast
NCI-H226 lung = test system: NCI-H226 lung
ACHN renal = test system: ACHN renal
NCI-H23 lung = test system: NCI-H23 lung
CCRF-CEM leukemia = test system: CCRF-CEM leukemia
IGROV1 ovarian = test system: IGROV1 ovarian
UACC-62 melanoma = test system: UACC-62 melanoma
786-0 renal = test system: 786-0 renal
MDA-MB-231 breast = test system: MDA-MB-231 breast
SNB-75 CNS = test system: SNB-75 CNS
SF-539 CNS = test system: SF-539 CNS
RPMI-8226 leukemia = test system: RPMI-8226 leukemia
LOX IMVI melanoma = test system: LOX IMVI melanoma
MCF7 breast = test system: MCF7 breast
UACC-257 melanoma = test system: UACC-257 melanoma
HOP-62 NSCLC = test system: HOP-62 NSCLC
SK-MEL-2 melanoma = test system: SK-MEL-2 melanoma
RXF 393 renal = test system: RXF 393 renal
OVCAR-5 ovarian = test system: OVCAR-5 ovarian
EKVX NSCLC = test system: EKVX NSCLC
OVCAR-8 ovarian = test system: OVCAR-8 ovarian
K-562 leukemia = test system: K-562 leukemia

With COc1ccc2nc3cc(Cl)ccc3c(NCCCCCN3CCCCC3)c2c1 the GI50 (SF-268 CNS) was 1.03 µM, the TGI (SF-268 CNS) was 2.88 µM and the GI50 (OVCAR-4 ovarian) was 0.086 µM. The TGI (OVCAR-4 ovarian) was 3.01 µM, the GI50 (SW-620 colon) was 0.0369 µM and the TGI (SW-620 colon) was 2.16 µM. It also gave a GI50 (M14 melanoma) of 1.65 µM, a TGI (M14 melanoma) of 3.15 µM and a GI50 (HOP-92 NSCLC) of 1.62 µM. The TGI (HOP-92 NSCLC) was 4.1 µM, the GI50 (HL-60(TB) leukemia) was 1.55 µM and the TGI (HL-60(TB) leukemia) was 3.54 µM. For the same compound, the GI50 (SF-295 CNS) was 0.0502 µM, the TGI (SF-295 CNS) was 1.91 µM and the GI50 (TK-10 renal) was 1.57 µM. The TGI (TK-10 renal) was 3.66 µM, the GI50 (SN12C renal) was 0.0763 µM and the TGI (SN12C renal) was 4.7 µM. For the same compound, the GI50 (SK-MEL-5 melanoma) was 1.6 µM, the TGI (SK-MEL-5 melanoma) was 2.96 µM and the GI50 (CAKI-1 renal) was 1.33 µM. The TGI (CAKI-1 renal) was 4.03 µM, the GI50 (SK-OV-3 ovarian) was 1.26 µM and the TGI (SK-OV-3 ovarian) was 3.1 µM. It also gave a GI50 (SK-MEL-28 melanoma) of 1.86 µM, a TGI (SK-MEL-28 melanoma) of 3.67 µM and a GI50 (NCI-H460 lung) of 0.0361 µM. The TGI (NCI-H460 lung) was 1.45 µM, the GI50 (SNB-19 CNS) was 1.14 µM and the TGI (SNB-19 CNS) was 5.54 µM. For the same compound, the GI50 (MOLT-4 leukemia) was 0.0416 µM, the TGI (MOLT-4 leukemia) was 3.12 µM and the GI50 (PC-3 prostate) was 1.07 µM. The TGI (PC-3 prostate) was 4.51 µM, the GI50 (HT29 colon) was 0.0338 µM and the TGI (HT29 colon) was 1.59 µM. For the same compound, the GI50 (COLO 205 colon) was 0.0668 µM, the TGI (COLO 205 colon) was 2.32 µM and the GI50 (KM12 colon) was 0.0576 µM. For the same compound, the TGI (KM12 colon) was 2.7 µM, the GI50 (U251 CNS) was 1.31 µM and the TGI (U251 CNS) was 3.1 µM. The GI50 (NCI/ADR-RES ovarian) was 0.0825 µM, the TGI (NCI/ADR-RES ovarian) was 4.24 µM and the GI50 (NCI-H522 lung) was 1.44 µM. The TGI (NCI-H522 lung) was 3.27 µM, the GI50 (DU-145 prostate) was 0.0558 µM and the TGI (DU-145 prostate) was 2.46 µM. It also gave a GI50 (OVCAR-3 ovarian) of 0.123 µM, a TGI (OVCAR-3 ovarian) of 2.24 µM and a GI50 (HS 578T breast) of 1.82 µM. The TGI (HS 578T breast) was 4.5 µM, the GI50 (A549 NSCLC) was 0.068 µM and the TGI (A549 NSCLC) was 2.73 µM. For the same compound, the GI50 (HCT-15 colon) was 0.0412 µM, the TGI (HCT-15 colon) was 1.85 µM and the GI50 (MDA-MB-435) was 1.37 µM. For the same compound, the TGI (MDA-MB-435) was 2.73 µM, the GI50 (BT-549 breast) was 1.72 µM and the TGI (BT-549 breast) was 3.28 µM. It also gave a GI50 (HCT-116 colon) of 0.0435 µM, a TGI (HCT-116 colon) of 1.91 µM and a GI50 (A498 renal) of 0.0114 µM. For the same compound, the TGI (A498 renal) was 1.88 µM, the GI50 (HCC-2998 colon) was 0.0673 µM and the TGI (HCC-2998 colon) was 2.05 µM. The GI50 (UO-31 renal) was 1.43 µM, the TGI (UO-31 renal) was 3.7 µM and the GI50 (SR leukemia) was 0.0314 µM. For the same compound, the TGI (SR leukemia) was 2.13 µM, the GI50 (T-47D breast) was 1.94 µM and the TGI (T-47D breast) was 4.58 µM. It also gave a GI50 (NCI-H226 lung) of 1.1 µM, a TGI (NCI-H226 lung) of 3.33 µM and a GI50 (ACHN renal) of 0.0447 µM. The TGI (ACHN renal) was 2.84 µM, the GI50 (NCI-H23 lung) was 1.09 µM and the TGI (NCI-H23 lung) was 2.85 µM. It also gave a GI50 (CCRF-CEM leukemia) of 0.073 µM, a TGI (CCRF-CEM leukemia) of 6.38 µM and a GI50 (IGROV1 ovarian) of 0.0888 µM. For the same compound, the TGI (IGROV1 ovarian) was 4.1 µM, the GI50 (UACC-62 melanoma) was 2.07 µM and the TGI (UACC-62 melanoma) was 3.93 µM. It also gave a GI50 (786-0 renal) of 0.056 µM, a TGI (786-0 renal) of 1.95 µM and a GI50 (MDA-MB-231 breast) of 1.01 µM. The TGI (MDA-MB-231 breast) was 3.1 µM, the GI50 (SNB-75 CNS) was 1.27 µM and the TGI (SNB-75 CNS) was 2.56 µM. It also gave a GI50 (SF-539 CNS) of 0.0559 µM, a TGI (SF-539 CNS) of 2.29 µM and a GI50 (RPMI-8226 leukemia) of 1.95 µM. For the same compound, the TGI (RPMI-8226 leukemia) was 6.32 µM, the GI50 (LOX IMVI melanoma) was 0.0355 µM and the TGI (LOX IMVI melanoma) was 1.44 µM. For the same compound, the GI50 (MCF7 breast) was 0.0408 µM, the TGI (MCF7 breast) was 2.13 µM and the GI50 (UACC-257 melanoma) was 1.94 µM. For the same compound, the TGI (UACC-257 melanoma) was 3.77 µM, the GI50 (HOP-62 NSCLC) was 0.0654 µM and the TGI (HOP-62 NSCLC) was 2.63 µM. It also gave a GI50 (SK-MEL-2 melanoma) of 2.22 µM and a TGI (SK-MEL-2 melanoma) of 4.04 µM.

In the case of CN(C)CCNc1ccc(NCCN(C)C)c2c1C(=O)c1ncsc1C2=O, the TGI (RXF 393 renal) is reported as 41 µM, the TGI (SF-268 CNS) is reported as 39.3 µM and the TGI (OVCAR-4 ovarian) is reported as 25.1 µM. The TGI (SW-620 colon) was 29.7 µM, the TGI (M14 melanoma) was 36.6 µM and the TGI (HOP-92 NSCLC) was 29.9 µM. For the same compound, the TGI (SF-295 CNS) was 26.6 µM, the TGI (TK-10 renal) was 58.2 µM and the TGI (SN12C renal) was 25.7 µM. For the same compound, the TGI (SK-MEL-5 melanoma) was 31.6 µM, the TGI (OVCAR-5 ovarian) was 55.3 µM and the TGI (CAKI-1 renal) was 57.5 µM. For the same compound, the TGI (SK-OV-3 ovarian) was 38.8 µM, the TGI (SK-MEL-28 melanoma) was 33.7 µM and the TGI (SNB-19 CNS) was 51 µM. The TGI (MOLT-4 leukemia) was 5.57 µM, the TGI (PC-3 prostate) was 38.1 µM and the TGI (HT29 colon) was 19.7 µM. The TGI (COLO 205 colon) was 31.1 µM, the TGI (KM12 colon) was 25.2 µM and the TGI (U251 CNS) was 29.7 µM. It also gave a TGI (NCI/ADR-RES ovarian) of over 100 µM, a TGI (NCI-H522 lung) of 31.7 µM and a TGI (DU-145 prostate) of 25.9 µM. For the same compound, the TGI (OVCAR-3 ovarian) was 37.2 µM, the TGI (HS 578T breast) was 50.3 µM and the TGI (A549 NSCLC) was 31.3 µM. For the same compound, the TGI (HCT-15 colon) was 27.6 µM, the TGI (MDA-MB-435) was 27.8 µM and the TGI (BT-549 breast) was 35.1 µM. For the same compound, the TGI (HCT-116 colon) was 22.7 µM, the TGI (A498 renal) was 28.1 µM and the TGI (EKVX NSCLC) was 26.4 µM. For the same compound, the TGI (HCC-2998 colon) was 31.3 µM, the TGI (UO-31 renal) was 32.2 µM and the TGI (SR leukemia) was 4.39 µM. It also gave a TGI (T-47D breast) of over 100 µM, a TGI (NCI-H226 lung) of 17.7 µM and a TGI (ACHN renal) of 22.7 µM. It also gave a TGI (NCI-H23 lung) of 30 µM, a TGI (CCRF-CEM leukemia) of 10.9 µM and a TGI (IGROV1 ovarian) of 28.1 µM. For the same compound, the TGI (UACC-62 melanoma) was 24.6 µM, the TGI (786-0 renal) was 24 µM and the TGI (MDA-MB-231 breast) was 32.2 µM. It also gave a TGI (SNB-75 CNS) of 33 µM, a TGI (SF-539 CNS) of 28.1 µM and a TGI (RPMI-8226 leukemia) of 29.4 µM. The TGI (OVCAR-8 ovarian) was 27.8 µM, the TGI (LOX IMVI melanoma) was 29.5 µM and the TGI (MCF7 breast) was 21.3 µM. For the same compound, the TGI (UACC-257 melanoma) was 34.7 µM, the TGI (K-562 leukemia) was 34.3 µM and the TGI (HOP-62 NSCLC) was 43.6 µM. The TGI (SK-MEL-2 melanoma) was 42.7 µM.
